Assay results reported in the supplement of paper PMC11208160.

Test: recombinant barcode read abundance after kanamycin selection (control-corrected) (log10(CPM+1)); higher = more efficient recombination; sequences stand for … in AGTGCAGAGAAAATCGGCCAGTTTTCTCTGCCTGCAGTCCGCATGCCGT…ATTTATGCAGCGGACTGCCTTTCTCCCAAAGTGATAAACCGGACAGTATCATGGACCGGTTTTCCCGGTAATCCGTATTTGCAAGGTTGGTTTCACT; site = the 11-nt target
Protocol: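 Same pooled E. coli target screen (IS621 bridge recombinase, kanamycin selection, control-corrected CPM, mean of 2 biological replicates). Here the two core-binding nucleotides of the LTG and RTG of the bridge RNA target-binding loop are mutated. Target and donor CT cores are held constant, and the other 9 guide positions match the target. The target is read from the library oligo sequence. Molecule = full bridge RNA written as DNA: nt 1-80 from the library oligo, rest WT scaffold.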
For “ATGTCCCAGTGGGTTCTAACCTGTTGCTCCT [ATGTCCCCTGA_LTGcore_AG_RTGcore_AG] (site ATGTCCCCTGA) (LTG core: AG, RTG core: AG)”, the “recombinant barcode read abundance (log10)” value was 0.0318. In the case of “GAGGCCTTCTGGGTTCTAACCTGTTGCCAGA [GAGGCCTCTTG_LTGcore_TC_RTGcore_TC] (site GAGGCCTCTTG) (LTG core: TC, RTG core: TC)”, the “recombinant barcode read abundance (log10)” value is reported as 0.104. For “TCTACCCTCTGGGTTCTAACCTGTTGCTGGA [TCTACCCCTCA_LTGcore_TC_RTGcore_TC] (site TCTACCCCTCA) (LTG core: TC, RTG core: TC)”, the “recombinant barcode read abundance (log10)” value was 0.032. In the case of “GGCTCCCTATGGGTTCTAACCTGTTGCGGAG [GGCTCCCCTCC_LTGcore_TA_RTGcore_CT] (site GGCTCCCCTCC) (LTG core: TA, RTG core: CT)”, the “recombinant barcode read abundance (log10)” value is reported as 0.233. With “TGTATTCAATGGGTTCTAACCTGTTGCCTTT [TGTATTCCTAG_LTGcore_AA_RTGcore_AA] (site TGTATTCCTAG) (LTG core: AA, RTG core: AA)” the “recombinant barcode read abundance (log10)” value was 0.0627. With “AGGAGGTCTTGGGTTCTAACCTGTTGCCTGA [AGGAGGTCTAG_LTGcore_CT_RTGcore_TC] (site AGGAGGTCTAG) (LTG core: CT, RTG core: TC)” the “recombinant barcode read abundance (log10)” value was 0.643. For “ACGGGACTATGGGTTCTAACCTGTTGCAGTA [ACGGGACCTCT_LTGcore_TA_RTGcore_TA] (site ACGGGACCTCT) (LTG core: TA, RTG core: TA)”, the “recombinant barcode read abundance (log10)” value was 0.0155. With “TAAGAATCTTGGGTTCTAACCTGTTGCCTCT [TAAGAATCTAG_LTGcore_CT_RTGcore_AG] (site TAAGAATCTAG) (LTG core: CT, RTG core: AG)” the “recombinant barcode read abundance (log10)” value was 0.422. For “AGTCTTACGTGGGTTCTAACCTGTTGCCACG [AGTCTTACTTG_LTGcore_CG_RTGcore_CG] (site AGTCTTACTTG) (LTG core: CG, RTG core: CG)”, the “recombinant barcode read abundance (log10)” value was 0.213. For “GGACACCTTTGGGTTCTAACCTGTTGCCTAA [GGACACCCTAG_LTGcore_TT_RTGcore_TT] (site GGACACCCTAG) (LTG core: TT, RTG core: TT)”, the “recombinant barcode read abundance (log10)” value was 0.175. For “AGGCGGGCGTGGGTTCTAACCTGTTGCGGAG [AGGCGGGCTCC_LTGcore_CG_RTGcore_CT] (site AGGCGGGCTCC) (LTG core: CG, RTG core: CT)”, the “recombinant barcode read abundance (log10)” value was 2.17. With “GGGCGTGCCTGGGTTCTAACCTGTTGCCTGG [GGGCGTGCTAG_LTGcore_CC_RTGcore_CC] (site GGGCGTGCTAG) (LTG core: CC, RTG core: CC)” the “recombinant barcode read abundance (log10)” value was 0.138. With “TAAGAATAATGGGTTCTAACCTGTTGCCTTT [TAAGAATCTAG_LTGcore_AA_RTGcore_AA] (site TAAGAATCTAG) (LTG core: AA, RTG core: AA)” the “recombinant barcode read abundance (log10)” value was 1.48. In the case of “AAACATGCTTGGGTTCTAACCTGTTGCCTAA [AAACATGCTAG_LTGcore_CT_RTGcore_TT] (site AAACATGCTAG) (LTG core: CT, RTG core: TT)”, the “recombinant barcode read abundance (log10)” value is reported as 0.344. In the case of “AAACACATATGGGTTCTAACCTGTTGCCTAG [AAACACACTAG_LTGcore_TA_RTGcore_CT] (site AAACACACTAG) (LTG core: TA, RTG core: CT)”, the “recombinant barcode read abundance (log10)” value is reported as 0.104. In the case of “AGTCTTACTTGGGTTCTAACCTGTTGCCAGA [AGTCTTACTTG_LTGcore_CT_RTGcore_TC] (site AGTCTTACTTG) (LTG core: CT, RTG core: TC)”, the “recombinant barcode read abundance (log10)” value is reported as 0.0445. With “GGGAGCCGTTGGGTTCTAACCTGTTGCTGAG [GGGAGCCCTCA_LTGcore_GT_RTGcore_CT] (site GGGAGCCCTCA) (LTG core: GT, RTG core: CT)” the “recombinant barcode read abundance (log10)” value was 0.186. For “CGCGCCCCTTGGGTTCTAACCTGTTGCGGCC [CGCGCCCCTCC_LTGcore_CT_RTGcore_GG] (site CGCGCCCCTCC) (LTG core: CT, RTG core: GG)”, the “recombinant barcode read abundance (log10)” value was 0.215. With “ATGCTTTAGTGGGTTCTAACCTGTTGCCTAG [ATGCTTTCTAG_LTGcore_AG_RTGcore_CT] (site ATGCTTTCTAG) (LTG core: AG, RTG core: CT)” the “recombinant barcode read abundance (log10)” value was 0.0782. With “GCGCGACACTGGGTTCTAACCTGTTGCTTGT [GCGCGACCTAA_LTGcore_AC_RTGcore_AC] (site GCGCGACCTAA) (LTG core: AC, RTG core: AC)” the “recombinant barcode read abundance (log10)” value was 0.147. For “GGGCGGATTTGGGTTCTAACCTGTTGCGGAG [GGGCGGACTCC_LTGcore_TT_RTGcore_CT] (site GGGCGGACTCC) (LTG core: TT, RTG core: CT)”, the “recombinant barcode read abundance (log10)” value was 0.188. In the case of “GAGTCCATGTGGGTTCTAACCTGTTGCGTCA [GAGTCCACTAC_LTGcore_TG_RTGcore_TG] (site GAGTCCACTAC) (LTG core: TG, RTG core: TG)”, the “recombinant barcode read abundance (log10)” value is reported as 0.101. For “GAGGCCTTGTGGGTTCTAACCTGTTGCCACA [GAGGCCTCTTG_LTGcore_TG_RTGcore_TG] (site GAGGCCTCTTG) (LTG core: TG, RTG core: TG)”, the “recombinant barcode read abundance (log10)” value was 0.014. For “ATGCTTTTTTGGGTTCTAACCTGTTGCCTAA [ATGCTTTCTAG_LTGcore_TT_RTGcore_TT] (site ATGCTTTCTAG) (LTG core: TT, RTG core: TT)”, the “recombinant barcode read abundance (log10)” value was 0.0151. In the case of “TGATACCTATGGGTTCTAACCTGTTGCGTAG [TGATACCCTAC_LTGcore_TA_RTGcore_CT] (site TGATACCCTAC) (LTG core: TA, RTG core: CT)”, the “recombinant barcode read abundance (log10)” value is reported as 0.0864. With “GCGCGACGCTGGGTTCTAACCTGTTGCTTAG [GCGCGACCTAA_LTGcore_GC_RTGcore_CT] (site GCGCGACCTAA) (LTG core: GC, RTG core: CT)” the “recombinant barcode read abundance (log10)” value was 0.0605. In the case of “AGGCGGTAGTGGGTTCTAACCTGTTGCTTCT [AGGCGGTCTAA_LTGcore_AG_RTGcore_AG] (site AGGCGGTCTAA) (LTG core: AG, RTG core: AG)”, the “recombinant barcode read abundance (log10)” value is reported as 0.197. For “TCTACCCGGTGGGTTCTAACCTGTTGCTGCC [TCTACCCCTCA_LTGcore_GG_RTGcore_GG] (site TCTACCCCTCA) (LTG core: GG, RTG core: GG)”, the “recombinant barcode read abundance (log10)” value was 0.108. With “AGGCGGTGGTGGGTTCTAACCTGTTGCTTAG [AGGCGGTCTAA_LTGcore_GG_RTGcore_CT] (site AGGCGGTCTAA) (LTG core: GG, RTG core: CT)” the “recombinant barcode read abundance (log10)” value was 0.074. With “TGATACCCCTGGGTTCTAACCTGTTGCGTAG [TGATACCCTAC_LTGcore_CC_RTGcore_CT] (site TGATACCCTAC) (LTG core: CC, RTG core: CT)” the “recombinant barcode read abundance (log10)” value was 0.566. For “AGGCGGTGCTGGGTTCTAACCTGTTGCTTGC [AGGCGGTCTAA_LTGcore_GC_RTGcore_GC] (site AGGCGGTCTAA) (LTG core: GC, RTG core: GC)”, the “recombinant barcode read abundance (log10)” value was 0.104. For “CATATTAATTGGGTTCTAACCTGTTGCCTAT [CATATTACTAG_LTGcore_AT_RTGcore_AT] (site CATATTACTAG) (LTG core: AT, RTG core: AT)”, the “recombinant barcode read abundance (log10)” value was 0.0885. In the case of “TCTACCCCTTGGGTTCTAACCTGTTGCTGCC [TCTACCCCTCA_LTGcore_CT_RTGcore_GG] (site TCTACCCCTCA) (LTG core: CT, RTG core: GG)”, the “recombinant barcode read abundance (log10)” value is reported as 0.0951. With “CATATTATGTGGGTTCTAACCTGTTGCCTAG [CATATTACTAG_LTGcore_TG_RTGcore_CT] (site CATATTACTAG) (LTG core: TG, RTG core: CT)” the “recombinant barcode read abundance (log10)” value was 0.0521. In the case of “TGATACCCATGGGTTCTAACCTGTTGCGTAG [TGATACCCTAC_LTGcore_CA_RTGcore_CT] (site TGATACCCTAC) (LTG core: CA, RTG core: CT)”, the “recombinant barcode read abundance (log10)” value is reported as 0.328. For “AGTCTTACTTGGGTTCTAACCTGTTGCCATT [AGTCTTACTTG_LTGcore_CT_RTGcore_AA] (site AGTCTTACTTG) (LTG core: CT, RTG core: AA)”, the “recombinant barcode read abundance (log10)” value was 0.196. With “GAGCCCACTTGGGTTCTAACCTGTTGCCTCA [GAGCCCACTAG_LTGcore_CT_RTGcore_TG] (site GAGCCCACTAG) (LTG core: CT, RTG core: TG)” the “recombinant barcode read abundance (log10)” value was 0.593. In the case of “GCGGGACAGTGGGTTCTAACCTGTTGCCTAG [GCGGGACCTAG_LTGcore_AG_RTGcore_CT] (site GCGGGACCTAG) (LTG core: AG, RTG core: CT)”, the “recombinant barcode read abundance (log10)” value is reported as 0.28. For “CGCGCCCCGTGGGTTCTAACCTGTTGCGGAG [CGCGCCCCTCC_LTGcore_CG_RTGcore_CT] (site CGCGCCCCTCC) (LTG core: CG, RTG core: CT)”, the “recombinant barcode read abundance (log10)” value was 0.167. In the case of “GCGGGACTATGGGTTCTAACCTGTTGCCTAG [GCGGGACCTAG_LTGcore_TA_RTGcore_CT] (site GCGGGACCTAG) (LTG core: TA, RTG core: CT)”, the “recombinant barcode read abundance (log10)” value is reported as 0.11. In the case of “AGGCGGGCCTGGGTTCTAACCTGTTGCGGAG [AGGCGGGCTCC_LTGcore_CC_RTGcore_CT] (site AGGCGGGCTCC) (LTG core: CC, RTG core: CT)”, the “recombinant barcode read abundance (log10)” value is reported as 1.48. With “GAGTCCAGGTGGGTTCTAACCTGTTGCGTAG [GAGTCCACTAC_LTGcore_GG_RTGcore_CT] (site GAGTCCACTAC) (LTG core: GG, RTG core: CT)” the “recombinant barcode read abundance (log10)” value was 0.689. For “TTATAAACGTGGGTTCTAACCTGTTGCCTAG [TTATAAACTAG_LTGcore_CG_RTGcore_CT] (site TTATAAACTAG) (LTG core: CG, RTG core: CT)”, the “recombinant barcode read abundance (log10)” value was 0.111. With “TAGAGGGCTTGGGTTCTAACCTGTTGCGGTC [TAGAGGGCTCC_LTGcore_CT_RTGcore_GA] (site TAGAGGGCTCC) (LTG core: CT, RTG core: GA)” the “recombinant barcode read abundance (log10)” value was 0.158.
